In patent publication US20240327359A1, “3-ISOXAZOLIDINONE COMPOUND, PREPARATION METHOD, HERBICIDAL COMPOSITION AND APPLICATION THEREOF” (QINGDAO KINGAGROOT CHEMICAL COMPOUND CO., LTD., priority 2021, published 2024):

Legend:
Type in all cases: in vivo
Amaranthus retroflexus = assay: Activity test of the compositions, post-emergence treatment by foliage spray; details: foliage (F)
Method: (§1) The desired active ingredient B was purchased from a reagent company or synthesized by a known method. The technical materials were all dissolved in acetone and diluted with an aqueous solution containing 0.10% emulsifier Tween-80 which were to be used immediately after dilution.
(§2) Weeds were cultivated by a pot culture method. […] Weed seeds with plump and uniform grains were selected, soaked in lukewarm water at 25° C. for 6 hours, and germinated in a 28° C. biochemical incubator (in darkness). The weed seeds that had just germinated were evenly placed on the surface of the soil and then covered with 0.5-1 cm soil according to the sizes of seeds.
(§3) The culture was carried out in a controllable sunlight greenhouse at 20 to 30° C., in natural light, and with relative humidity of 57% to 72%.
(§4) Each treatment was repeated 4 times. Four pots with 20 weed seeds per pot were treated each time.
(§5) The agents were used for only once in total in the experiment. In the stage of 1.5-2 leaves, the weeds were thinned out to maintain 10 weeds per pot. Ten weeds were kept in each treatment, then continued to be cultured until Echinochloa crus-galli var. zelayensis reached the stage of 2-3 leaves, Cirsium setosum reached the stage of 5-6 leaves, Galium aparine reached the stage of 3-4 whorl leaves, Amaranthus retroflexus reached the stage of 3-5 leaves, Echinochloa crusgalli, Lolium multiflorum and Digitaria sanguinalis reached the stage of 3 leaves with one leaf not fully expanding for further treatment.
(§6) The well-cultured test materials were evenly placed on a platform with an area of 0.5 m^2, and solution of agents was sprayed on the stems and leaves thereof by the 3WP-2000-type walking spray tower at a dosage of 450 kg/ha and at a spray pressure of 0.3 MPa. After all the solution was sprayed, the valve was closed. After 30 seconds, the door of the spray tower was opened, and the nutritional bowl was taken out. Then the valve was opened, and the spray tube was cleaned by spraying 50 ml of water. After the treatment, the weeds were routinely cultured in a greenhouse.
(§7) A method for investigating absolute numbers was employed. Whole seedlings of survival weeds were cut off with a blade along the soil surface, and the fresh weight of the weeds was weighed with an analytical balance. For dead weeds, the fresh weight thereof was zero.
(§8) The investigation was performed 21 days after the treatment for only once in total.

[1] = system: Echinochloa crus-galli var. zelayensis; assay: as above; details: Echinochloa crusgalli var. zelayensis; foliage (F); A 16 g a.i./mu
Method: as §1, §2, §3, §4, §5, §6, §7, §8

Echinochloa crusgalli [2] = assay: as above; details: foliage (F), A 16 g a.i./mu
Method: as §1, §2, §3, §4, §5, §6, §7, §8

Digitaria sanguinalis = assay: as above
Method: as §1, §2, §3, §4, §5, §6, §7, §8

Cirsium setosum = assay: as above; details: foliage (F), A 32 g a.i./mu
Method: as §1, §2, §3, §4, §5, §6, §7, §8

Lolium multiflorum = assay: as above; details: foliage (F), A 16 g a.i./mu
Method: as §1, §2, §3, §4, §5, §6, §7, §8

Lolium perenne = assay: Weeding effect in pre-emergence stage; details: 2 weeks
Text: (§9) The activity level criteria for plant damage (i.e., growth control rate) are as follows:
(§10) The above growth control rates are fresh weight control rates.
(§11) Monocotyledonous and dicotyledonous weed seeds (Descurainia sophia, Capsella bursa-pastoris, Abutilon theophrasti, Galium aparine, Stellaria media, Lithospermum arvense, Rorippa indica, Alopecurus aequalis, Alopecurus japonicus, Eleusine indica, Beckmannia syzigachne, Sclerochloa dura, Phleum paniculatum, Veronica didyma, Bromus japonicus, Aegilops tauschii, Phalaris arundinacea, Amaranthus retroflexus, Chenopodiaceae, Commelina communis, Sonchus arvensis, Convolvulus arvensis, Cirsium setosum, Solanumnigrum, Acalypha australis, Digitaria sanguinalis, Echinochloa crusgalli, Setaria viridis, Setaria glauca, Leptochloa chinensis, Monochoria vaginalis, Sagittaria trifolia, Scirpus juncoides, Cyperus rotundus, Cyperus iria, Cyperus difformis, Fimbristylis, Portulaca oleracea, Xanthium sibiricum, Pharbitis nil, Conyza Canadensis, etc.) and major crop seeds (wheat, corn, rice, soybean, cotton, oilseed rape, millet, sorghum, potato, sesame, ricinus, etc.) were placed in plastic pots filled with soil, then covered with 0.5-2 cm of soil, allowed to grow in a good greenhouse environment. The test plants were treated on the day of sowing. The tested compounds of the present invention were respectively dissolved in acetone, then added with Tween 80, diluted with a certain amount of water to obtain a solution of a certain concentration, and sprayed by a spray tower onto the plants. After the application, the plants were cultured for 2 weeks in the greenhouse, and then the experimental results of the weeding were recorded. The doses of the used compounds were 3, 6, 12, 24, 48 g ai./mu (1 mu=1/15 ha), and the averages were obtained from three replicates.

Descurainia sophia = assay: Weeding effect in pre-emergence stage; details: 2 weeks
Text: as §9, §10, §11

Veronica didyma = assay: Weeding effect in pre-emergence stage; details: 2 weeks
Text: as §9, §10, §11

Echinochloa crusgalli [3] = assay: Weeding effect in pre-emergence stage; details: 2 weeks
Text: as §9, §10, §11

Leptochloa chinensis = assay: Weeding effect in pre-emergence stage; details: 2 weeks
Text: as §9, §10, §11

[4] = system: Echinochloa crusgalli, Leptochloa chinensis, Digitaria sanguinalis, Descurainia Sophia, Capsella bursa-pastoris, Galium aparine, Stellaria media, Lolium …; assay: Field test, weed control; details: applied after planting and pre-emergence at 300 g a.i./ha

`CC1(C)CON(Cc2ccc(Cl)cc2Br)C1=O` [Compound 1] was tested, and the “Control effect (%) of A applied alone (A)” value (“Control effect (%)” below) (Amaranthus retroflexus; A 8 g a.i./mu) was 36.7%, the “Control effect (%)” value (Amaranthus retroflexus; A 16 g a.i./mu) was 36.7% and the “Control effect (%)” value [1] was 43.6%. For the same compound, the “Control effect (%)” value (Echinochloa crusgalli [2]) was 46.2%, the “Control effect (%)” value (Digitaria sanguinalis; foliage (F), A 16 g a.i./mu) was 42.3% and the “Control effect (%)” value (Digitaria sanguinalis; foliage treatment (F), A at 16 g a.i./mu, fresh weight inhibition 21 days after treatment) was 42.3%. For the same compound, the “Control effect (%)” value (Cirsium setosum) was 64.2%, the “Control effect (%)” value (Lolium multiflorum) was 56.7% and the “weeding effect in pre-emergence stage, activity level (growth control rate)” value (“weeding effect in pre-emergence stage” below) (Lolium perenne; 6 g a.i./mu) was 2 (Level 2: growth control rate is greater than or equal to 15% and less than 30%). The “weeding effect in pre-emergence stage” value (Lolium perenne; 24 g a.i./mu) was 9, the “weeding effect in pre-emergence stage” value (Descurainia sophia; 3 g a.i./mu) was 7 (Level 7: growth control rate is greater than or equal to 70% and less than 80%) and the “weeding effect in pre-emergence stage” value (Descurainia sophia; 6 g a.i./mu) was 9. For the same compound, the “weeding effect in pre-emergence stage” value (Descurainia sophia; 12 g a.i./mu) was 9, the “weeding effect in pre-emergence stage” value (Descurainia sophia; 24 g a.i./mu) was 9 and the “weeding effect in pre-emergence stage” value (Veronica didyma; 6 g a.i./mu) was 8 (Level 8: growth control rate is greater than or equal to 80% and less than 100%). For the same compound, the “weeding effect in pre-emergence stage” value (Veronica didyma; 12 g a.i./mu) was 9, the “weeding effect in pre-emergence stage” value (Veronica didyma; 24 g a.i./mu) was 9 and the “weeding effect in pre-emergence stage” value (Echinochloa crusgalli [3]; 3 g a.i./mu) was 8 (Level 8: growth control rate is greater than or equal to 80% and less than 100%). The “weeding effect in pre-emergence stage” value (Echinochloa crusgalli [3]; 6 g a.i./mu) was 9, the “weeding effect in pre-emergence stage” value (Echinochloa crusgalli [3]; 12 g a.i./mu) was 9 and the “weeding effect in pre-emergence stage” value (Echinochloa crusgalli [3]; 24 g a.i./mu) was 9. For the same compound, the “weeding effect in pre-emergence stage” value (Leptochloa chinensis; 3 g a.i./mu) was 9, the “weeding effect in pre-emergence stage” value (Leptochloa chinensis; 6 g a.i./mu) was 9 and the “weeding effect in pre-emergence stage” value (Leptochloa chinensis; 12 g a.i./mu) was 9. For the same compound, the “weeding effect in pre-emergence stage” value (Leptochloa chinensis; 24 g a.i./mu) was 9 and the “control of major weeds in field test” value [4] was “effectively controls”.
